Test results as given in patent publication US20230058623A1, “NOVEL HETEROARYL-TRIAZOLE COMPOUNDS AS PESTICIDES” (Bayer Aktiengesellschaft, priority 2019, published 2023).

Assays:
Type in all cases: in vivo
[1] = tested on: adult unfed cat fleas (Ctenocephalides felis); assay: Ctenocephalides felis oral test; details: 48 h, read-out: activity (mortality)
Summary of the method: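 About 20 adult unfed cat fleas fed through parafilm on citrated cattle blood containing compound (from a DMSO concentrate). Blood held at 37° C, fleas at room temperature. Mortality in % scored after 2 days.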

[2] = tested on: adult engorged female ticks (Rhipicephalus microplus); assay: Rhipicephalus (Boophilus) microplus injection test; details: 168 h, application rate 4 μg/tick, egg deposition after 7 days, read-out: activity (efficacy: infertile eggs)
Summary of the method: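 Five adult engorged female ticks injected into the abdomen with 1 μL compound solution in DMSO, then held in a climate chamber. Fertile egg deposition assessed after 7 days, unclear eggs kept until hatching (about 42 days); efficacy 100% = all eggs infertile, 0% = all fertile.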

[3] = tested on: southern root-knot nematode (Meloidogyne incognita); assay: Meloidogyne incognita test; details: application rate 20 ppm; after 14 days
Protocol: Meloidogyne incognita—Test
Solvent: 125.0 parts by weight of acetone
To produce a suitable preparation of active compound, 1 part by weight of active compound is mixed with the stated amount of solvent, and the concentrate is diluted with water to the desired concentration.
Vessels are filled with sand, a solution of the active ingredient, a suspension containing eggs and larvae of the southern root-knot nematode (Meloidogyne incognita) and salad seeds. The salad seeds germinate and the seedlings grow. Galls develop in the roots.
After 14 days the nematicidal activity is determined based on the percentage of gall formation. 100% means no galls were found and 0% means the number of galls found on the roots of the treated plants was equal to that in untreated control plants.

[4] = tested on: Rhipicephalus (Boophilus) microplus larvae (strain Parkhurst, resistant against synthetic pyrethroids); assay: Rhipicephalus (Boophilus) microplus in-vitro contact test, larval cattle tick; details: after 48 hours, read-out: activity (efficacy: larvae dead or moribund)
Summary of the method: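 Acetone solutions were coated onto glass tube walls, giving 5 μg/cm^2 at 900 ppm. Once dry, 20–50 pyrethroid-resistant Parkhurst larvae were added per tube and held 48 h at 27 °C and 85% RH. Efficacy was scored by negative geotaxis as the percentage of dead or moribund larvae.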

[5] = tested on: adult brown dog ticks (Rhipicephalus sanguineus); assay: Rhipicephalus sanguineus in-vitro contact test, adult brown dog ticks; details: application rate 5 μg/cm^2 (=500 g/ha), after 48 hours, read-out: activity (efficacy: ticks dead or moribund)
Summary of the method: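 Acetone solution rolled onto tube walls, 2 h at 30 rpm; 900 ppm → 5 μg/cm^2. Solvent evaporated, 5-10 adults/tube, perforated lid, lying, RT. 48 h: heat plate 45-50° C ≤5 min; immotile/uncoordinated = dead/moribund. 100% = all dead/moribund.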

[6] = tested on: green peach aphid (Myzus persicae); assay: Myzus persicae oral test; details: 120 h, read-out: activity (mortality)
Summary of the method: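 Oral uptake format: water-diluted acetone concentrate of compound is blended into IPL41 medium carrying 33%+15% sugar and offered under a parafilm membrane. Percentage of dead insects is recorded after 5 days.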

[7] = tested on: larvae of the southern green stink bug (Nezara viridula); assay: Nezara viridula spray test; details: 96 h, after 4 days, barley plants
Summary of the method: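 Barley plants sprayed with the active compound in emulsifier-containing water, then infested with stink bug larvae. Mortality scored in % after 4 days, with 100% meaning all insects killed.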

[8] = tested on: brown planthopper (Nilaparvata lugens); assay: Nilaparvata lugens spray test; details: 96 h, application rate 500 g/ha, after 4 days, rice plants
Protocol: Nilaparvata lugens—Spray Test
To produce a suitable preparation of active compound, 1 part by weight of active compound is mixed with the stated amount of solvents and is diluted with water, containing an emulsifier concentration of 1000 ppm, to the desired concentration. Further test concentrations are prepared by dilution with emulsifier containing water.
Rice plants (Oryza sativa) are sprayed with a preparation of the active ingredient of the desired concentration and the plants are infested with the brown planthopper (Nilaparvata lugens).
After 4 days mortality in % is determined. 100% means all planthoppers have been killed and 0% means none of the planthoppers have been killed.

For `Cc1nc([C@H](C)NC(=O)c2cc(Cl)cc(C(F)(F)F)c2)n(-c2cc(C(=O)N3CCCC3)ccn2)n1` [Example I-27], the mortality at 100 ppm [1] was 100%, the pest or weed control at 0.004 mg [2] was 80% and the “activity (nematicidal activity based on gall formation)” value [3] was 90%. For the same compound, the pest or weed control at 1 µg/cm2, 100 g/ha ([4]; application rate 1 μg/cm^2 (=100 g/ha)) was 100%, the pest or weed control at 5 µg/cm2, 500 g/ha ([4]; application rate 5 μg/cm^2 (=500 g/ha)) was 100% and the pest or weed control at 5 µg/cm2, 500 g/ha [5] was 80%.

`CC1CN(C(=O)c2ccc(-n3ncnc3[C@H](C)NC(=O)c3cc(C(F)(F)F)cc(S(C)(=O)=O)c3)nc2)CCO1` (some centres unmarked) [Example I-81] was tested, and the mortality at 4 ppm [6] was 100%, the “activity (nematicidal activity based on gall formation)” value [3] was 100% and the mortality at 100 g/ha ([7]; application rate 100 g/ha) was 100%. For the same compound, the mortality at 500 g/ha ([7]; application rate 500 g/ha, read-out: activity (mortality)) was 100% and the mortality at 500 g/ha [8] was 100%.
